Converted amounts (≈) assume the structure as drawn.
Tested on: Propionibacterium acnes- antibiotic-resistant clinical isolate
Settings: P. acnes antibiotic-resistant

CCCCCCNC(=O)[C@H](CCCNC(=N)N)NC(=O)[C@H](Cc1c(C(C)(C)C)[nH]c2c(C(C)(C)C)cc(C(C)(C)C)cc12)NC(=O)[C@@H](N)CCCNC(=N)N [Compound 8]
MIC: 2 µg/mL (≈ 2.6 µM)

— patent US20240277890A1, “ANTIMICROBIAL ARTICLES COMPRISING POLYURETHANE” (Amicoat AS, priority 2021, published 2024)
